Assay results: patent publication US12459974B2, “Bicyclic peptide ligands specific for Nectin-4” (priority 2018, dated 2025)
*1 amine or outer side, *2 acyl side, *3 side chain or, on linkers, in order; H or OH if unused. Where a SMILES comes first, the peptide text is derived from it. Bridges are numbered along the chain shown (N, C = ends). Roman numbers before positions name the chains, in order. [ ]: non-standard residue; d: D form. The star is where a group is joined. ξ: configuration not given here. TATA = O=C(CC[*:1])N1CN(C(=O)CC[*:2])CN(C(=O)CC[*:3])C1; Dolaproine = CO[C@@H]([C@@H]1CCCN1)[C@@H](C)C(=O)O; X1 = CC[C@H](C)C(C(CC(=O)[*:2])OC)N(C)[*:1]; 1Nal = N[C@@H](Cc1cccc2ccccc12)C(=O)O; X3 = O=C(CCCC(=O)[*:2])NCCC(=O)[*:1]; PABC = O=C(OCc1ccc(N[*:1])cc1)[*:2]; Hyp = O=C(O)[C@@H]1C[C@@H](O)CN1; hArg = N=C(N)NCCCC[C@H](N)C(=O)O; Cit = NC(=O)NCCC[C@H](N)C(=O)O; X2 = CC(N*)[C@@H](O)c1ccccc1; ξNMeV = CNC(C(=O)O)C(C)C; ξV = CC(C)C(N)C(=O)O; Sar = CNCC(=O)O

Tests used:
[1] = test system: MDA-MB-468 xenograft; experiment: Example 9.9: in vivo efficacy of BCY8245 alone or with BCY8234 in MDA-MB-468 xenograft (large tumors) in Balb/c nude mice; set-up: species or system Mus Musculus
[2] = BCY8245 (BT8009) at 3 mg/kg
Method: At various timepoints, animals were euthanized and plasma and tumour taken and snap frozen. Samples were analysed for MMAE.

[3] = test system: Panc2.13 xenograft; experiment: Example 9.7: in vivo efficacy in Panc2.13 xenograft in Balb/c nude mice; details: for Tumor volume: iv
Method: (§1) The major endpoint was to see if the tumor growth could be delayed or mice could be cured. Tumor volume was measured three times weekly in two dimensions using a caliper, and the volume was expressed in mm^3 using the formula: V=0.5 a×b^2 where a and b are the long and short diameters of the tumor, respectively. The tumor size was then used for calculations of T/C value. The T/C value (in percent) is an indication of antitumor effectiveness; T and C are the mean volumes of the treated and control groups, respectively, on a given day. TGI was calculated for each group using the formula: TGI (%)=[1−(Ti−T0)/(Vi−V0)]×100; Ti is the average tumor volume of a treatment group on a given day, T0 is the average tumor volume of the treatment group on the day of treatment start, Vi is the average tumor volume of the vehicle control group on the same day with Ti, and V0 is the average tumor volume of the vehicle group on the day of treatment start.
(§2) A one-way ANOVA was performed to compare tumor volume among groups, and when a significant F-statistics (a ratio of treatment variance to the error variance) was obtained, comparisons between groups were carried out with Games-Howell test. All data were analyzed using GraphPad Prism 5.0. P<0.05 was considered to be statistically significant.
(§3) • Species: Mus Musculus • Strain: Balb/c nude • Age: 6-8 weeks • Sex: female • Body weight: 18-22 g • Number of animals: 41 mice plus spare 3.1.2.
The Panc2.13 tumor cells will be maintained in RMPI1640 medium supplemented with 15% heat inactivated fetal bovine serum and 10 units/ml human recombinant insulin at 37° C. in an atmosphere of 5% CO2 in air. The tumor cells will be routinely subcultured twice weekly. The cells growing in an exponential growth phase will be harvested and counted for tumor inoculation.
Each mouse was inoculated subcutaneously at the right flank with Panc2.13 tumor cells (5×10^6 with Matrigel (1:1) in 0.2 ml of PBS for tumor development. 41 animals were randomized when the average tumor volume reached 149 mm^3. The test article administration and the animal numbers in each group were shown in the experimental design table.
Tumor growth inhibition rate for Test articles in the Panc2.13 xenograft model was calculated based on tumor volume measurements at day 14 after the start of treatment.

[4] = test system: MDA-MB-468 xenograft; experiment: Example 9.4: in vivo efficacy in MDA-MB-468 xenograft in Balb/c nude mice; details: for TGI / Tumor volume (TV) / T/C: day 21; for T/C: treated/control group average tumor volume; for Tumor volume trace over time (Day 23 to day 42): dosing suspended from day 21
Method: as §1, §2, §3
The tumor cells were maintained in Leibovitz's L-15 medium supplemented with 10% heat inactivated fetal bovine serum at 37° C. in an atmosphere of 5% CO2 in air. The tumor cells were routinely subcultured twice weekly. The cells growing in an exponential growth phase were harvested and counted for tumor inoculation.
41 animals were randomized when the average tumor volume reached 196 mm^3.

`CC[C@H](C)C(C(CC(=O)N1CCC[C@H]1[C@H](OC)[C@@H](C)C(=O)NC(C)[C@@H](O)c1ccccc1)OC)N(C)C(=O)[C@@H](NC(=O)C(C(C)C)N(C)C(=O)OCc1ccc(NC(=O)[C@H](CCCNC(N)=O)NC(=O)C(NC(=O)CCCC(=O)NCCC(=O)N(C)CC(=O)N(C)CC(=O)N(C)CC(=O)N(C)CC(=O)N(C)CC(=O)N(C)CC(=O)N(C)CC(=O)N(C)CC(=O)N(C)CC(=O)N(C)CC(=O)N[C@H]2CSCCC(=O)N3CN4CN(C3)C(=O)CCSC[C@H](NC(=O)[C@@H](CC(=O)O)NC(=O)[C@H](Cc3cccc5ccccc35)NC(=O)[C@@H]3CCCN3C2=O)C(=O)N[C@@H](CCSC)C(=O)N[C@@H](CCCCNC(=N)N)C(=O)N[C@@H](CC(=O)O)C(=O)N[C@@H](Cc2c[nH]c3ccccc23)C(=O)N[C@@H](CO)C(=O)N[C@@H]([C@@H](C)O)C(=O)N2CCC[C@H]2C(=O)N2C[C@H](O)C[C@H]2C(=O)N[C@@H](Cc2c[nH]c3ccccc23)C(=O)N[C@H](C(N)=O)CSCCC4=O)C(C)C)cc1)C(C)C` (stereo partly drawn) [BCY8245, MMAE-PABC-Cit-Val-Glutaryl-BCY8234] (I: [Sar][Sar][Sar][Sar][Sar][Sar][Sar][Sar][Sar][Sar]CP[1Nal][dD]CM[hArg]DWSTP[Hyp]WC-NH2 / II: [ξV][Cit][PABC][ξNMeV]V[X1][Dolaproine]-X2; linker I:11-I:15-I:25 via TATA; linker I:N-II:N via X3) showed a Tumor volume ([1]; Group1, Vehicle, dosed with 5 mpk BCY8245 on PG-D28, day 55) of 227 ± 166 mm^3, a Tumor volume ([1]; Group1, Vehicle, dosed with 5 mpk BCY8245 on PG-D28, day 56) of 264 ± 182 mm^3 and a Tumor volume ([1]; Group1, Vehicle, dosed with 5 mpk BCY8245 on PG-D28, day 62) of 288 ± 206 mm^3. The Tumor volume ([1]; Group 2, 1 mpk, change in 5 mpk on PG-D28, day 30) was 351 ± 42 mm^3, the Tumor volume ([1]; Group 2, 1 mpk, change in 5 mpk on PG-D28, day 33) was 213 ± 29 mm^3 and the Tumor volume ([1]; Group 2, 1 mpk, change in 5 mpk on PG-D28, day 35) was 151 ± 18 mm^3. The Tumor volume ([1]; Group 2, 1 mpk, change in 5 mpk on PG-D28, day 37) was 98 ± 16 mm^3, the Tumor volume ([1]; Group 2, 1 mpk, change in 5 mpk on PG-D28, day 40) was 89 ± 17 mm^3 and the Tumor volume ([1]; Group 2, 1 mpk, change in 5 mpk on PG-D28, day 42) was 95 ± 16 mm^3. It also gave a Tumor volume ([1]; Group 2, 1 mpk, change in 5 mpk on PG-D28, day 44) of 103 ± 20 mm^3, a Tumor volume ([1]; Group 2, 1 mpk, change in 5 mpk on PG-D28, day 48) of 106 ± 21 mm^3 and a Tumor volume ([1]; Group 2, 1 mpk, change in 5 mpk on PG-D28, day 51) of 103 ± 21 mm^3. The Tumor volume ([1]; Group 2, 1 mpk, change in 5 mpk on PG-D28, day 55) was 104 ± 20 mm^3, the Tumor volume ([1]; Group 2, 1 mpk, change in 5 mpk on PG-D28, day 56) was 120 ± 23 mm^3 and the Tumor volume ([1]; Group3, 3 mpk, qw, day 30) was 44 ± 18 mm^3. For the same molecule, the Tumor volume ([1]; Group3, 3 mpk, qw, day 33) was 43 ± 20 mm^3, the Tumor volume ([1]; Group3, 3 mpk, qw, day 35) was 44 ± 20 mm^3 and the Tumor volume ([1]; Group3, 3 mpk, qw, day 37) was 50 ± 24 mm^3. It also gave a Tumor volume ([1]; Group3, 3 mpk, qw, day 40) of 55 ± 29 mm^3, a Tumor volume ([1]; Group3, 3 mpk, qw, day 42) of 66 ± 32 mm^3 and a Tumor volume ([1]; Group3, 3 mpk, qw, day 44) of 71 ± 33 mm^3. The Tumor volume ([1]; Group3, 3 mpk, qw, day 48) was 80 ± 36 mm^3, the Tumor volume ([1]; Group3, 3 mpk, qw, day 51) was 91 ± 43 mm^3 and the Tumor volume ([1]; Group3, 3 mpk, qw, day 55) was 108 ± 53 mm^3. For the same molecule, the Tumor volume ([1]; Group3, 3 mpk, qw, day 56) was 125 ± 58 mm^3, the “tumor response (in words)” value ([1]; former vehicle group and group 2, 5 mg/kg on PG-D28, following 3 weeks) was “effective tumor regression” and the “retention of MMAE in tumour versus plasma (in words)” value [2] was “retained in the tumour longer than in plasma”. For the same molecule, the TGI ([3]; 3 mg/kg biw, day 14) was 79.1%, the “Tumor volume (TV)” value ([3]; 3 mg/kg biw, day 14) was 231 mm^3 and the TGI ([3]; 3 mg/kg qw, day 14) was 69.2%. For the same molecule, the “Tumor volume (TV)” value ([3]; 3 mg/kg qw, day 14) was 271 mm^3, the TGI ([3]; 5 mg/kg qw, day 14) was 77.5% and the “Tumor volume (TV)” value ([3]; 5 mg/kg qw, day 14) was 238 mm^3. For the same molecule, the Tumor volume ([3]; 3 mpk, biw, day 0 after the start of treatment) was 148 mm^3, the Tumor volume ([3]; 3 mpk, biw, day 2) was 170 mm^3 and the Tumor volume ([3]; 3 mpk, biw, day 4) was 204 mm^3. For the same molecule, the Tumor volume ([3]; 3 mpk, biw, day 7) was 216 mm^3, the Tumor volume ([3]; 3 mpk, biw, day 9) was 236 mm^3 and the Tumor volume ([3]; 3 mpk, biw, day 11) was 241 mm^3. The Tumor volume ([3]; 3 mpk, biw, day 14) was 231 mm^3, the T/C ([3]; 3 mpk, biw, day 14) was 42.3% and the TGI ([3]; 3 mpk, biw, day 14) was 79.1%. The “Tumor Volume (Mean ± SEM)” value ([3]; 3 mpk, biw, day 14) was 231 ± 57 mm^3, the Tumor volume ([3]; 3 mpk, qw, day 0 after the start of treatment) was 149 mm^3 and the Tumor volume ([3]; 3 mpk, qw, day 2) was 160 mm^3. It also gave a Tumor volume ([3]; 3 mpk, qw, day 4) of 191 mm^3, a Tumor volume ([3]; 3 mpk, qw, day 7) of 215 mm^3 and a Tumor volume ([3]; 3 mpk, qw, day 9) of 242 mm^3. For the same molecule, the Tumor volume ([3]; 3 mpk, qw, day 11) was 259 mm^3, the Tumor volume ([3]; 3 mpk, qw, day 14) was 271 mm^3 and the T/C ([3]; 3 mpk, qw, day 14) was 49.6%. The TGI ([3]; 3 mpk, qw, day 14) was 69.2%, the “Tumor Volume (Mean ± SEM)” value ([3]; 3 mpk, qw, day 14) was 271 ± 54 mm^3 and the Tumor volume ([3]; 5 mpk, qw, day 0 after the start of treatment) was 149 mm^3. It also gave a Tumor volume ([3]; 5 mpk, qw, day 2) of 180 mm^3, a Tumor volume ([3]; 5 mpk, qw, day 4) of 231 mm^3 and a Tumor volume ([3]; 5 mpk, qw, day 7) of 242 mm^3. It also gave a Tumor volume ([3]; 5 mpk, qw, day 9) of 248 mm^3, a Tumor volume ([3]; 5 mpk, qw, day 11) of 231 mm^3 and a Tumor volume ([3]; 5 mpk, qw, day 14) of 238 mm^3. For the same molecule, the T/C ([3]; 5 mpk, qw, day 14) was 43.6%, the TGI ([3]; 5 mpk, qw, day 14) was 77.5% and the “Tumor Volume (Mean ± SEM)” value ([3]; 5 mpk, qw, day 14) was 238 ± 40 mm^3. The “tumor response (in words)” value ([3]; mouse, in vivo) was “tumor growth is restrained by BCY8245 but the tumor does not undergo regression”, the TGI ([4]; 3 mg/kg biw) was 169.8% and the “Tumor volume (TV)” value ([4]; 3 mg/kg biw) was 22 mm^3. The TGI ([4]; 3 mg/kg qw) was 144.2%, the “Tumor volume (TV)” value ([4]; 3 mg/kg qw) was 85 mm^3 and the TGI ([4]; 5 mg/kg qw) was 168.4%. For the same molecule, the “Tumor volume (TV)” value ([4]; 5 mg/kg qw) was 29 mm^3, the TGI ([4]; 3 mpk, biw, iv) was 169.8% and the T/C ([4]; 3 mpk, biw, iv) was 4.9%. The TGI ([4]; 3 mpk, qw, iv) was 144.2%, the T/C ([4]; 3 mpk, qw, iv) was 18.9% and the “Tumor volume trace over time (Day 23 to day 42)” value (“Tumor volume trace over time” below) ([4]; 5 mpk, qw, iv, day 23 after the start of treatment) was 35 ± 5 mm^3. The “Tumor volume trace over time” value ([4]; 5 mpk, qw, iv, day 25 after the start of treatment) was 48 ± 5 mm^3, the “Tumor volume trace over time” value ([4]; 5 mpk, qw, iv, day 28 after the start of treatment) was 37 ± 7 mm^3 and the “Tumor volume trace over time” value ([4]; 5 mpk, qw, iv, day 32 after the start of treatment) was 28 ± 6 mm^3. For the same molecule, the “Tumor volume trace over time” value ([4]; 5 mpk, qw, iv, day 35 after the start of treatment) was 24 ± 4 mm^3, the “Tumor volume trace over time” value ([4]; 5 mpk, qw, iv, day 39 after the start of treatment) was 28 ± 6 mm^3 and the “Tumor volume trace over time” value ([4]; 5 mpk, qw, iv, day 42 after the start of treatment) was 26 ± 6 mm^3. For the same molecule, the TGI ([4]; 5 mpk, qw, iv) was 168.4%, the T/C ([4]; 5 mpk, qw, iv) was 6.6% and the “tumor response (in words)” value ([4]; mouse, in vivo) was “causes regression of the tumor”.
